Patent publication US12054466B2, “Compounds for the treatment of clostridium difficile infection” (University of Notre Dame du Lac, priority 2016, dated 2024)
Where two headings read alike, the source gives them in different places.

Assays:
Type in all cases: cell-based
C. difficile ATCC43598 = experiment: MIC, broth microdilution; conditions: Clostridioides difficile, C. difficile ATCC43598
C. difficile ATCC43255 = experiment: MIC, broth microdilution; conditions: Clostridioides difficile, C. difficile ATCC43255
C. difficile BAA-1870 = experiment: MIC, broth microdilution; conditions: Clostridioides difficile, BAA1870, C. difficile BAA-1870 (NAP1, ribotype 27)
C. difficile BAA-1804 = experiment: MIC, broth microdilution; conditions: Clostridioides difficile, BAA1804, C. difficile BAA-1804
C. difficile BAA-1803 = experiment: MIC, broth microdilution; conditions: Clostridioides difficile, BAA1803, C. difficile BAA-1803 (NAP1, ribotype 027)
C. difficile BAA-1801 = experiment: MIC, broth microdilution; conditions: Clostridioides difficile, BAA1801, C. difficile BAA-1801 (nontoxigenic)
C. difficile BAA-1812 = experiment: MIC, broth microdilution; conditions: Clostridioides difficile, BAA1812, C. difficile BAA-1812
C. difficile BAA-1814 = experiment: MIC, broth microdilution; conditions: Clostridioides difficile, BAA1814, C. difficile BAA-1814
C. difficile NR49310 = experiment: MIC, broth microdilution; conditions: Clostridioides difficile, C. difficile NR49310 (NAP7, ribotype 078)
C. difficile NR49294 = experiment: MIC, broth microdilution; conditions: Clostridioides difficile, C. difficile NR49294 (NAP4, ribotype 014)
C. difficile NR49305 = experiment: MIC, broth microdilution; conditions: Clostridioides difficile, C. difficile NR49305 (NAP6, ribotype 002)
C. difficile NR49318 = experiment: MIC, broth microdilution; conditions: Clostridioides difficile, C. difficile NR49318 (NAP11, ribotype 106)
C. difficile NR49292 = experiment: MIC, broth microdilution; conditions: Clostridioides difficile, C. difficile NR49292 (NAP2, ribotype 001_072)
C. difficile NR49302 = experiment: MIC, broth microdilution; conditions: Clostridioides difficile, C. difficile NR49302 (NAP4, ribotype 020)
[1] = system: Bacteroides fragilis HM-709; experiment: MIC against common gut bacteria; conditions: HM709; Bacteroides fragilis HM-709; read-out: MIC
Bacteroides fragilis = experiment: MIC against common gut bacteria; conditions: read-out: MIC
Bacteroides ovatus = experiment: MIC against common gut bacteria; conditions: read-out: MIC
Bacteroides vulgatus = experiment: MIC against common gut bacteria; conditions: Phocaeicola vulgatus; Bacteroides vulgatus; read-out: MIC
Bacteroides eggerthii = experiment: MIC against common gut bacteria; conditions: read-out: MIC
Bacteroides caccae = experiment: MIC against common gut bacteria; conditions: read-out: MIC
[2] = system: Bifidobacterium longum HM-846; experiment: MIC against common gut bacteria; conditions: HM846; Bifidobacterium longum HM-846; read-out: MIC
[3] = system: Corynebacterium sp. HM-784; experiment: MIC against common gut bacteria; conditions: SP.HM784; Corynebacterium sp. HM-784; incubated aerobically; read-out: MIC
Experimental: Minimally-inhibitory concentrations. MICs for C. difficile strains and the common gut bacteria were determined using broth microdilution techniques as reported earlier using brucella broth supplemented with hemin and vitamin K or supplemented BHIS broth (Babakhani et al., J Antimicrob Chemother 2013, 68(3), 515). Lactobacillus MRS broth was used for lactobacillus strains. […] All incubations unless specified otherwise were carried out at 24 or 48 h at 37° C. in an anaerobic chamber (Whitley DG250 workstation, Microbiology International, Frederick, MD). Corynebacterium and lactobacillus species were incubated aerobically.

[4] = system: Fusobacterium nucleatum HM-992; experiment: MIC against common gut bacteria; conditions: HM992; Fusobacterium nucleatum HM-992; read-out: MIC
[5] = system: Lactobacillus reuteri HM-102; experiment: MIC against common gut bacteria
[6] = system: Lactobacillus gasseri HM-644; experiment: MIC against common gut bacteria
Veillonella sp. HM-49 = experiment: MIC against common gut bacteria
Eubacterium sp. HM-178 = experiment: MIC against common gut bacteria; conditions: SP.HM178

FC(F)(F)c1ccc(Oc2ccc(-c3noc(-c4ccc5[nH]ccc5c4)n3)cc2)cc1 [Compound 1]
1 µg/mL: MIC (C. difficile ATCC43598; 24 h, read-out: MIC at 24 h) | MIC (C. difficile ATCC43598; 48 h, read-out: MIC at 48 h) | MIC (C. difficile BAA-1803; 24 h, read-out: MIC at 24 h) | MIC (C. difficile NR49294; 24 h, read-out: MIC at 24 h) | MIC (C. difficile NR49294; 48 h, read-out: MIC at 48 h) | MIC (C. difficile NR49292; 24 h, read-out: MIC at 24 h) | MIC (C. difficile NR49302; 24 h, read-out: MIC at 24 h) | MIC [4]
not active: Activity against Lactobacillus reuteri ([5]; in words) | Activity against Lactobacillus gasseri ([6]; in words) | Activity against Veillonella sp. (Veillonella sp. HM-49; in words)
> 12 µg/mL: MIC ([5]; Limosilactobacillus reuteri, HM102, Lactobacillus reuteri HM-102, read-out: MIC) | MIC ([6]; HM644, Lactobacillus gasseri HM-644, read-out: MIC) | MIC (Veillonella sp. HM-49; SP.HM49, Veillonella sp. HM-49, read-out: MIC)
4 µg/mL: MIC (C. difficile BAA-1870; 48 h, read-out: MIC at 48 h) | MIC (C. difficile BAA-1801; 48 h, read-out: MIC at 48 h) | MIC (C. difficile BAA-1814; 48 h, read-out: MIC at 48 h) | MIC (C. difficile NR49305; 48 h, read-out: MIC at 48 h) | MIC (Bacteroides fragilis) | MIC (Bacteroides ovatus) | MIC (Bacteroides caccae)
2 µg/mL: MIC (C. difficile ATCC43255; 24 h, read-out: MIC at 24 h) | MIC (C. difficile ATCC43255; 48 h, read-out: MIC at 48 h) | MIC (C. difficile BAA-1870; 24 h, read-out: MIC at 24 h) | MIC (C. difficile BAA-1804; 24 h, read-out: MIC at 24 h) | MIC (C. difficile BAA-1804; 48 h, read-out: MIC at 48 h) | MIC (C. difficile BAA-1803; 48 h, read-out: MIC at 48 h) | MIC (C. difficile BAA-1801; 24 h, read-out: MIC at 24 h) | MIC (C. difficile BAA-1812; 24 h, read-out: MIC at 24 h) | MIC (C. difficile BAA-1812; 48 h, read-out: MIC at 48 h) | MIC (C. difficile BAA-1814; 24 h, read-out: MIC at 24 h) | MIC (C. difficile NR49310; 24 h, read-out: MIC at 24 h) | MIC (C. difficile NR49310; 48 h, read-out: MIC at 48 h) | MIC (C. difficile NR49305; 24 h, read-out: MIC at 24 h) | MIC (C. difficile NR49318; 24 h, read-out: MIC at 24 h) | MIC (C. difficile NR49318; 48 h, read-out: MIC at 48 h) | MIC (C. difficile NR49292; 48 h, read-out: MIC at 48 h) | MIC (C. difficile NR49302; 48 h, read-out: MIC at 48 h) | MIC [1] | MIC (Bacteroides vulgatus) | MIC (Bacteroides eggerthii) | MIC [3] | MIC (Eubacterium sp. HM-178)
0.2 µg/mL: MIC [2]
